{
  "source": "patent US9051351B2",
  "about": "“Hepatocyte growth factor mimics as therapeutic agents” (Washington State University, priority 2011, dated 2015)",
  "key": {"c-Met receptor": {"test_system": "c-Met receptor", "experiment": "c-Met phosphorylation in acute adult hippocampal slices", "format": "cell-based, rat", "settings": "30 minutes", "source_text": "Adult Sprague-Dawley rats (250 g+) obtained from Harlan Laboratories (Ca, USA) were anesthetized with isofluorane (Vet One™, MWI, Meridian, Id., USA) and decapitated. The brain was rapidly removed and placed into ice-chilled artificial cerebrospinal fluid (aCSF) for approximately 30 s. Both hemispheres were separated by a mid-saggital cut and both hippocampi removed. Slices were sectioned cross- and length-wise (400 μm) to ensure penetrability of the drug, using a Mcllwain tissue chopper (Brinkmann, Gomshall, UK) and transferred to a gassed (95% O2/5% CO2) incubation chamber containing aCSF for 90 minutes at room temperature. Slices were transferred to fresh tubes, aCSF was removed by careful suctioning and replaced with aCSF containing vehicle (aCSF+aCSF), 100 ng/ml with carrier free adult recombinant Hepatocyte Growth Factor (HGF) (R and D Systems, MN, USA) in aCSF, 10^−10 M Hinge (Harding lab), […], 10^−10 M Dihexa (Harding lab) in aCSF, 10^−12 M Dihexa in aCSF or 50 ng/ml HGF+10^−12 M Dihexa in aCSF for 30 minutes at 37° C. with gentle rocking. aCSF was removed and the slices were lysed using RIPA buffer (Upstate/Milipore, Billerica, Mass.) and inhibitor Cocktails I and II (Sigma, St. Louis, Mo.), sonicated on ice and clarified by centrifugation for 30 minutes, 13,000 rpm at 4° C. The supernatant was removed from the pellet and stored at −80° C. or processed immediately for gel electrophoresis.\nProtein concentration of the samples was quantified using the BCA method (Pierce, Rockford, Ill.) following the manufacturers protocol. Samples were added to SDS-PAGE buffer and boiled for 10 min. before loading onto a 4-12% Bis-Tris pre-cast gel (Invitrogen, Carlsbad, Calif.) for electrophoresis. Proteins were transferred onto PVDF membranes (Bio Rad, Hercules, Calif.) and blocked with AquaBlock™ (New England Biolabs, Ipswich, Mass.) for 1 hour at room temperature (RT). Primary antibody incubation was done in AquaBlock™ with rabbit anti-Met and […] phospho-Met (Tyr1234/1235) (1:1000, Cell Signaling Technology, Danvers, Mass.) overnight at 4° C. Alternating washes were done with PBS and PBST. Secondary antibody (IRDye) (Rockland, Gilbertsville, Pa.) incubations were done in AquaBlock™ for one hour at RT. Blots were imaged using LI-COR Odyssey Infrared Imaging System (LI-COR Biosciences, Lincoln, Nebr.)."}, "6-OHDA lesioned rats": {"test_system": "6-OHDA lesioned rats", "experiment": "6-OHDA lesioned rat: rope hang, gait analysis, histology", "format": "in vivo", "experimental": "Three groups of rats (8 animals per group) were utilized. The first two groups were prepared with unilateral 6-OHDA lesions and members of the first group was treated with MM-201 in DMSO 100 μl:PBS 8 ml ([…]) Members of Group 2 were treated with sterile DMSO 100 μl:PBS 8 ml equivalent volumes to the weights. Members of Group 3 had only a sham surgery and served as the non-treated controls. These three groups of animals were tested on behavioral tasks the day prior to surgery and on 13 days following surgery. The tasks included rope hang, and gait analysis.\nThe rope hang test involved the placement of the forepaws on a hemp rope (1.0 cm in dia.) located 1 m above a basket of towels. Hang time was recorded beginning when the experimenter let go of the animal. This test was repeated 3 times/animal/test (5 minutes rest between each test) every other day.\nStep gait analyses were conducted in a dark room painted black under red light. The bottoms of each rat's feet were painted with black ink (Parker Quink) and the rat was placed in a Plexiglas straight maze (length×width×height: 116×7.6×10 cm). The maze was slightly elevated at one end such that the animal's tendency was to walk up hill. White paper strips placed on the floor of the maze were used to collect the gait patterns. These ink tracks were analyzed for stride length (distance between the mid point of the fore paw and hind paw comparing left and right strides)."}, "hippocampal neurons [1]": {"test_system": "hippocampal neurons", "experiment": "H2O2 oxidative stress in dissociated hippocampal neurons", "format": "cell-based", "settings": "100 μM H2O2 24 hrs +/− HGF 5 ng/ml and/or Dihexa", "experimental": "FIG. 47. […] Dissociated hippocampal neurons were treated with 100 μM H2O2 for 24 hrs+/−HGF at sub-threshold concentrations 5 ng/ml and or Dihexa at 2 different concentrations 10^−8M and […]. (*p<0.05,** p<0.01; Mean+/−SEM)."}, "scopolamine treated rats": {"test_system": "scopolamine treated rats", "experiment": "Morris water maze, scopolamine amnesia model", "format": "in vivo, rat", "settings": "for mean latency to find the pedestal: Dihexa, Hinge 300 pmol, scopolamine 70 nmol", "experimental": "Swim speed was determined from these values."}, "hippocampal neurons [2]": {"test_system": "hippocampal neurons", "experiment": "Growth factor deprivation of dissociated hippocampal neurons", "format": "cell-based", "settings": "starved 72 hrs +/− HGF 5 ng/ml and/or Dihexa", "experimental": "FIG. 46. […] Dissociated hippocampal neurons were starved for 72 hrs+/−HGF at sub-threshold concentrations 5 ng/ml and or Dihexa at 2 different concentrations 10^−8M and […]. (**p<0.001,*** p<0.0001; Mean+/−SEM)."}, "human HGF": {"biological_target": "T1, human HGF (Homo sapiens, UniProt P14210)", "T1 construct": "purchased R&D Systems (Minneapolis, Minn.)", "T1 sequence (P14210 32-728)": "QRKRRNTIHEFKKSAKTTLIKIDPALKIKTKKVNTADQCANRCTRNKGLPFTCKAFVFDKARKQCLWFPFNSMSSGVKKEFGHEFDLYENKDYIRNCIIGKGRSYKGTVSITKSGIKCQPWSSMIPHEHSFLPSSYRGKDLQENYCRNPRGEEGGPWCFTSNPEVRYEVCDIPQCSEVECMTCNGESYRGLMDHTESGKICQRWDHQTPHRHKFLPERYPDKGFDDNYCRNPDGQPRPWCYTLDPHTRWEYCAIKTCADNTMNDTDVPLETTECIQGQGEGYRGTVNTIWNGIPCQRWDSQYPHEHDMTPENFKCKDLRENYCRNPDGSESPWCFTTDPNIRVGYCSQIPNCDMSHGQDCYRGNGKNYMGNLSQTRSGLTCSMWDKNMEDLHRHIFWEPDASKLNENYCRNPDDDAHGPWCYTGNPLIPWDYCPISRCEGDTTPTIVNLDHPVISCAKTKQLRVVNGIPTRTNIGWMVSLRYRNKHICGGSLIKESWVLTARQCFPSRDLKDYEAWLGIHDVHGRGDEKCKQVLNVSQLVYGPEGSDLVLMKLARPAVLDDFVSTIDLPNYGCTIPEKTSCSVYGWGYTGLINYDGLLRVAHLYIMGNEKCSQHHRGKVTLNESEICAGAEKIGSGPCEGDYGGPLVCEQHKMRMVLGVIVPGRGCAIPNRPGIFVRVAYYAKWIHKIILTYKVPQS", "experiment": "HGF dimerization (PAGE, silver staining)", "format": "biochemical", "settings": "30 minutes, heparin", "experimental": "HGF dimerization was assessed using PAGE followed by silver staining (Kawas et al., 2011). Human HGF at a concentration of 0.08 ng/μl with or without 6-AH analogs was incubated with heparin at a final concentration of 5 μg/ml. Loading buffer was then added to each sample and the mixture separated by native PAGE using gradient Criterion XT precast gels (4-12% Bis-Tris; Biorad Laboratories, Hercules, Calif.). Next the gel was silver stained for the detection of the HGF monomers and dimers. Bands were quantitated from digital images using a UVP phosphoimager (Upland, Calif.)."}, "[3]": {"settings": "scopolamine icv, dihexa icv 1 nmol"}},
  "note": "Entries after “also recorded” stand apart in the source; their conditions may differ. Where a SMILES comes first, the peptide text is derived from it. [ ]: non-standard residue; d: D form. The star is where a group is joined. Hexanoyl = CCCCCC(=O)*; Ahx = NCCCCCC(=O)O",
  "data": [
    {"smiles": "CCCCCC(=O)N[C@@H](Cc1ccc(O)cc1)C(=O)N[C@H](C(=O)NCCCCCC(N)=O)[C@@H](C)CC", "note": "[Dihexa, N-hexanoic-Tyr-Ile-(6)-aminohexanoic amide] (Hexanoyl-Tyr-Ile-[Ahx]-NH2)", "values": [
      {"measurement": "c-Met phosphorylation vs vehicle (aCSF)", "setting": "c-Met receptor; saturating doses: HGF 100 ng/ml, Dihexa 10^−10 M", "result": "increased c-Met phosphorylation; also recorded: effectively augment c-Met phosphorylation"},
      {"measurement": "c-Met phosphorylation vs vehicle (aCSF)", "setting": "c-Met receptor; sub-threshold doses: HGF 50 ng/ml, Dihexa 10^−12 M", "result": "not statistically different from control treated slices; also recorded: did not significantly increase c-Met receptor phosphorylation"},
      {"measurement": "performance in the rope hang test", "setting": "6-OHDA lesioned rats; 0.5 mg/kg ip, started 2 weeks after 6-OHDA lesion", "result": "completely restores performance in the rope hang test; also recorded: completely restored the performance"},
      {"measurement": "motor deficits in the 6-OHDA rat", "setting": "6-OHDA lesioned rats; 2 mg/kg by oral gavage/48 hrs", "result": "reverses motor deficits"},
      {"measurement": "gait analysis", "setting": "6-OHDA lesioned rats; 6-OHDA lesioned rats", "result": "confirmed the recovery of normal motor function"},
      {"measurement": "overt toxicity", "setting": "6-OHDA lesioned rats; 96 day studies", "result": "no overt toxicity was noted"},
      {"measurement": "tyrosine hydroxylase (TH) staining in the substantia nigra", "setting": "6-OHDA lesioned rats; six weeks of ip Dihexa treatment", "result": "dramatic restoration of tyrosine hydroxylase (TH) staining"},
      {"measurement": "recovery of SN TH staining", "setting": "6-OHDA lesioned rats; three months of Dihexa treatment", "result": "~100", "unit": "%"},
      {"measurement": "protection of neurons from oxidative stress", "setting": "hippocampal neurons [1]", "result": "act synergistically to protect neurons; also recorded: protects neurons from oxidative stress"},
      {"measurement": "mean latency to find the pedestal", "setting": "scopolamine treated rats; day one of training, icv", "result": 115.2, "unit": "s"},
      {"measurement": "time spent in the target quadrant, day 9 probe trial", "setting": "scopolamine treated rats; dihexa at its highest dose, icv, ip and oral delivery", "result": "increased the time spent in the target quadrant"},
      {"measurement": "time spent in the target quadrant, day 9 probe trial", "setting": "scopolamine treated rats; dihexa ip 0.05, 0.25, 0.50 mg/kg", "result": "Each of the treatment groups was different than the scopolamine"},
      {"measurement": "time spent in the target quadrant, day 9 probe trial", "setting": "scopolamine treated rats; dihexa oral 1.25 and 2.0 mg/kg", "result": "Both of the treatment groups were different than the scopolamine"},
      {"measurement": "mean latency to find the pedestal", "setting": "scopolamine treated rats; final day of training (day 8), icv", "result": 62.3, "unit": "s"},
      {"measurement": "mean latency to find the pedestal", "setting": "scopolamine treated rats; fourth day of training, icv", "result": 63.0, "unit": "s"},
      {"measurement": "latency to escape, Morris water maze (FIG. 21)", "setting": "scopolamine treated rats; i.c.v. injections, 8 days of training", "result": "show rapid facilitation of the task"},
      {"measurement": "latency to find the pedestal in the water maze", "setting": "scopolamine treated rats; scopolamine icv, Dihexa ICV 10 pmoles (low dose)", "result": "not 10 pmoles"},
      {"measurement": "latency to find the pedestal in the water maze", "setting": "scopolamine treated rats; scopolamine icv, Dihexa ICV 100 pmoles (high dose), daily, 8 days", "result": "reversed scopolamine-dependent learning deficits; also recorded: completely overcome the scopolamine deficits"},
      {"measurement": "latency to find the pedestal in the water maze", "setting": "scopolamine treated rats; scopolamine icv, Dihexa oral 1.25 mg/kg/day (low dose)", "result": "partially reversed"},
      {"measurement": "latency to find the pedestal in the water maze", "setting": "scopolamine treated rats; scopolamine icv, Dihexa oral 2 mg/kg/day (high dose), 2 mg/kg/day", "result": "no different than controls; also recorded: completely overcome the scopolamine deficits"},
      {"measurement": "latency to find the pedestal in the water maze", "setting": "scopolamine treated rats; scopolamine icv, Dihexa oral 2 mg/kg/day (high dose), listed as dihexa, 2 mg/kg/day", "result": "indistinguishable from vehicle controls; also recorded: completely reversed the scopolamine-dependent learning deficit"},
      {"measurement": "latency to find the submerged platform in the Morris water maze", "setting": "scopolamine treated rats; scopolamine icv, dihexa icv 0.1 nmol", "result": "significantly improved performance when compared to the scopolamine group on days 5-8"},
      {"measurement": "latency to find the submerged platform in the Morris water maze", "setting": "scopolamine treated rats; [3]", "result": "significantly improved performance; also recorded: indistinguishable from the vehicle control group; also recorded: all time points for the 1 nmol dihexa group were different from the scopolamine group"},
      {"measurement": "time spent in the target quadrant, day 9 probe trial", "setting": "scopolamine treated rats; [3]", "result": "vehicle control groups were not different"},
      {"measurement": "latency to find the submerged platform in the Morris water maze", "setting": "scopolamine treated rats; scopolamine icv, dihexa ip 0.05 mg/kg", "result": "not different than the scopolamine group"},
      {"measurement": "latency to find the submerged platform in the Morris water maze", "setting": "scopolamine treated rats; scopolamine icv, dihexa ip 0.25 mg/kg", "result": "different than the scopolamine"},
      {"measurement": "latency to find the submerged platform in the Morris water maze", "setting": "scopolamine treated rats; scopolamine icv, dihexa ip 0.50 mg/kg, 0.5 mg/kg", "result": "indistinguishable from vehicle controls; also recorded: different than the scopolamine; also recorded: not different than the vehicle control group"},
      {"measurement": "protection of neurons from growth factor deprivation", "setting": "hippocampal neurons [2]", "result": "act synergistically to protect neurons; also recorded: protects neurons from growth factor deprivation"},
      {"measurement": "HGF dimerization in the presence of Dihexa", "setting": "human HGF", "result": "blocking HGF dimerization; also recorded: blocks HGF dimerization"}
    ]}
  ]
}
